Test results: patent US9101613B2, “Methods for treating neurological disease” (Neurim Pharmaceuticals (1991) Ltd., priority 2006, dated 2015)
Read-outs that look alike come from different tables or passages of the source. Marks after values point to notes of the source that are not given here.

Assays:
5-HT2C receptor = molecular target: T1, 5-HT2C receptor (Homo sapiens, UniProt P28335); experiment: Serotonin receptor binding, [3H] Mesulergine, CHO-K1 membranes
T1 construct: expressed in transfected cells; host or cells: CHO-K1
T1 sequence (P28335 33-458): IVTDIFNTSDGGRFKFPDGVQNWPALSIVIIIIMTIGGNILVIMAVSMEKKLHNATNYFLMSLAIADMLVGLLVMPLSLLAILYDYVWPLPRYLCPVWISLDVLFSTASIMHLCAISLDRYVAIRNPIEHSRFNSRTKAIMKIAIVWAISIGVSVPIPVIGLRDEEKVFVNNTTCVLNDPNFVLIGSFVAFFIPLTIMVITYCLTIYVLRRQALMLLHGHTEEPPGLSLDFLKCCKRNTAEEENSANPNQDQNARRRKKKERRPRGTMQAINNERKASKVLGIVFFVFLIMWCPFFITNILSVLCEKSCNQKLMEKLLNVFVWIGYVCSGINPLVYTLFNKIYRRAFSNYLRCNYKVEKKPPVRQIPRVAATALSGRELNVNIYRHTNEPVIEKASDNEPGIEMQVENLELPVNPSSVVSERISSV
Experimental: Aliquots of suspended membranes of human recombinant CHO-K1 cells stably expressing human 5-HT1A, 5-HT2A, 5-HT1B, 5-HT2B, 5-HT2C, 5-HT4, 5-HT6 or 5-HT7 receptors were pre-incubated at 25° C. with 1.5 nM [^3H] 8-OH-DPAT (5-HT1A), 1.5 nM [^3H] Ketanserin (5-HT2A), 0.01 nM [^125I] Cyanopindolol (5-HT1B), 1 nM [^3H] Mesulergine (5-HT2c), 0.7 nM [^3H] GR-113808 (5-HT4) or at 37° C. 1.2 nM [^3H] LSD (5-HT2B, 5-HT6 and 5-HT7) in buffer (50 mM Tris-HCl, pH 7.7) alone or in the presence of 1 nM, 10 nM, 0.1 μM, 1 μM, and 10 μM of N-[2-(5-methoxy-indol-3-yl)-ethyl]-commenamide, N-[2-(5-methoxy-indol-3-yl)-ethyl]-coumalylamide, N-[2-(5-methoxy-indol-3-yl)-ethyl]-comanilamide, N-[2-(5-methoxy-indol-3-yl)-ethyl]-2-methoxy-commenamide or N-[2-(5-methoxy-indol-3-yl)-ethyl]-chelidonamide for 60 minutes. The binding reaction was terminated and washed with 4 ml ice-cold 50 mM Tris-HCl buffer by vacuum filtration. Membranes were then collected, and the filters containing the bound ligands were assayed for the amount of radioactivity in a b-counter. Non-specific binding was evaluated using a reaction with 10 μM metergoline (5-HT1A), 1 μM mianserin (5-HT2A and 5-HT2c) or 10 μM serotonin (5-HT1B, 5-HT2B, 5-HT4, 5-HT6 and 5-HT7).

C57BL/6 mice = experiment: MPTP mouse model of Parkinson's disease, pole test; format: in vivo
Source text: Three-month-old male C57BL/6 mice were housed in groups of 5 animals per cage (50 cm×25 cm×20 cm) in a temperature- and humidity-controlled environment with ad libitum access to food and water. Animals were maintained on a 12 hr light/dark schedule, with lights on at 7 A.M.
Six groups of mice were used: (1) the control mice treated with saline and vehicle (n=10), (2) the N-[2-(5-methoxy-indol-3-yl)-ethyl]-comanilamide control mice treated with saline and N-[2-(5-methoxy-indol-3-yl)-ethyl]-comanilamide at 100 or 200 mg/kg (n=5, respectively), (3) the MPTP mice treated with MPTP and vehicle (n=10) and (4) the N-[2-(5-methoxy-indol-3-yl)-ethyl]-comanilamide-treated MPTP mice treated with MPTP and N-[2-(5-methoxy-indol-3-yl)-ethyl]-comanilamide at 100 or 200 mg/kg (n=10, respectively). Mice received daily (i.p.) injections of saline or MPTP (30 mg/kg/day) dissolved in physiological saline for five consecutive days to induce Parkinsonism. N-[2-(5-methoxy-indol-3-yl)-ethyl]-comanilamide or vehicle was administered (i.p.) once per day for 17 days, starting on the first day of MPTP injections. Open field test, pole test, forepaw stride length test and traction test were conducted on day 14, 15, 16 and 17 after the first injections of MPTP, respectively.
In the pole test, the mouse was placed head upward on the top of a vertical wooden rough-surfaced pole (diameter: 1 cm, height: 50 cm), then allowed to descend five times. Each mouse was habituated to the apparatus two sessions (one session per day) before the day of first MPTP injections. The total time until the mouse reached the floor with its four paws was recorded (T-total) as well as the time needed for the mouse to turn completely head downward (T-turn). For each session of five descents, the best performance was kept for the T-turn and T-total. If the mouse was unable to turn completely downwards, fell or slipped down, the default value of 20 s was taken into account.

mice = experiment: Rotarod assay, interaction with diazepam; format: in vivo; conditions: for Incidence of performance (rotarod): 15 rpm; for effect on rotarod performance: compound alone i.p., 15 rpm rotation speed;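 for Incidence of performance (rotarod): Success means running more than 120 min on the rod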
Experimental: The incidences of animals running more than […] on the rotating rod were noted, and significances were calculated by non-parametric x^2 test. 8 mice/group were used.
The rotarod apparatus is divided into five test zones, so that up to five mice may be tested at the same time. The rod has been specially machined to provide a suitable grip for the animal. The diameter of the rod is 3.5 cm. The rotation speed was 15 rpm. When the animal falls off the rotating rod, it presses a button to record automatically the time spent on the rod. On the day before the experiment the mice were trained to run on the rod rotating with 15 rpm. Diazepam was administered orally 60 min before the rotarod assay, test substances were administered intraperitoneally 15 min before testing.

[1] = Diazepam 1.5 mg/kg p.o. + compound 5 mg/kg i.p.
[2] = Diazepam 1.5 mg/kg p.o. + compound 20 mg/kg i.p.
[3] = Diazepam 1.5 mg/kg p.o. + compound 50 mg/kg i.p.
[4] = Vehicle p.o. + compound 5 mg/kg i.p.
[5] = Vehicle p.o. + compound 20 mg/kg i.p.
[6] = Vehicle p.o. + compound 50 mg/kg i.p.

SMILES | IC50 (5-HT2C receptor; read-out: 5-HT2C IC50) [µM] | Ki (5-HT2C receptor; read-out: 5-HT2C KI) [µM] | T-turn, pole test, vs MPTP mice (C57BL/6 mice; 100 mg/kg i.p., p<0.05) | T-turn, pole test, vs MPTP mice (C57BL/6 mice; 200 mg/kg i.p., p>0.05) | T-turn, pole test, vs control mice (C57BL/6 mice; saline mice, 100 or 200 mg/kg i.p., both p>0.05) | Incidence of performance (rotarod) (mice; [1]) | Incidence of performance (rotarod) (mice; [2]) | Incidence of performance (rotarod) (mice; [3]) | Incidence of performance (rotarod) (mice; [4]) | Incidence of performance (rotarod) (mice; [5]) | Incidence of performance (rotarod) (mice; [6]) | effect on rotarod performance (mice) | IC50 (5-HT2C receptor) [µM] | Ki (5-HT2C receptor) [µM]
COc1ccc2[nH]cc(CCNC(=O)c3cc(=O)cc(C(=O)O)o3)c2c1 [N-[2-5-methoxy-indol-3-yl)-ethyl]-chelidonamide] | 11.2 | 5.8 | – | – | – | – | – | – | – | – | – | – | – | –
COc1ccc2[nH]cc(CCNC(=O)c3cc(=O)cco3)c2c1 [N-[2-(5-methoxy-indol-3-yl)-ethyl]-comanilamide] | – | – | showed less level of the T-turn | no significant difference in the T-turn | no significant difference in the T-turn | 4/8* | 2/8*** | 1/8*** | 6/8 | 5/8 | 5/8 | dose dependently impaired the performance | – | –
COc1ccc2[nH]cc(CCNC(=O)c3cc(=O)c(O)co3)c2c1 [N-[2-(5-methoxy-indol-3-yl)-ethyl]-commenamide] | – | – | – | – | – | 5/8 | 3/8** | 1/8*** | 8/8 | 5/8 | 5/8 | dose dependently impaired the performance | 7.2 | 3.8
